Results reported in patent US4308210A, “Nanaomycin B and therapeutic compositions containing same” (The Kitasato Institute, priority 1976, dated 1981).
In brackets after ≈: the same amount, converted by molar mass. Where two headings read alike, the source gives them in different places.

Legend:
[1] = system: Bacillus subtillis PCI 219; test: Antimicrobial spectrum, MIC, nutrient agar; assay type: cell-based; settings: PCI219, 48 h, nutrient agar (pH 7.0, 2 days, 37° C.)
[2] = system: Staphylococcus aureus FDA 209P; test: Antimicrobial spectrum, MIC, nutrient agar; assay type: cell-based; settings: FDA209P, 48 h, nutrient agar (pH 7.0, 2 days, 37° C.)
[3] = system: Escherichia coli NIHJ; test: Antimicrobial spectrum, MIC, nutrient agar; assay type: cell-based; settings: 48 h, nutrient agar (pH 7.0, 2 days, 37° C.)
Protocol: (§1) Medium N nutrient agar (pH 7.0, 2 days, 37° C.)
(§2) MIC Minimal inhibitory concentration

[4] = system: Klebsiella pneumoniae PCI 602; test: Antimicrobial spectrum, MIC, nutrient agar; assay type: cell-based; settings: PCI602, 48 h, nutrient agar (pH 7.0, 2 days, 37° C.)
Protocol: as §1, §2

[5] = system: Mycobacterium smegmatis; test: Antimicrobial spectrum, MIC, nutrient agar; assay type: cell-based; settings: Mycolicibacterium smegmatis, 48 h; nutrient agar (pH 7.0, 2 days, 37° C.)
Protocol: as §1, §2

[6] = system: Salmonella typhimurium; test: Antimicrobial spectrum, MIC, nutrient agar; assay type: cell-based; settings: Salmonella enterica, 48 h, nutrient agar (pH 7.0, 2 days, 37° C.)
Protocol: as §1, §2

[7] = system: Shigella flexneri; test: Antimicrobial spectrum, MIC, nutrient agar; assay type: cell-based; settings: 48 h, nutrient agar (pH 7.0, 2 days, 37° C.)
Protocol: as §1, §2

[8] = system: Xanthomonas oryzae N-5824; test: microbe, parasite or virus in culture; assay type: cell-based; settings: N5824, 48 h, pH 7
[9] = system: Candida albicans; test: Antimicrobial spectrum, MIC, potato agar; assay type: cell-based; settings: 96 h, potato agar (pH 6.4, 4 days, 27° C.)
[10] = system: Trichophyton ferrugineum; test: Antimicrobial spectrum, MIC, potato agar; assay type: cell-based; settings: Microsporum ferrugineum, 96 h; potato agar (pH 6.4, 4 days, 27° C.)
[11] = system: Trichophyton interdigitale; test: Antimicrobial spectrum, MIC, potato agar; assay type: cell-based; settings: 96 h, potato agar (pH 6.4, 4 days, 27° C.)
[12] = system: Trichophyton mentagrophytes; test: Antimicrobial spectrum, MIC, potato agar; assay type: cell-based; settings: 96 h, potato agar (pH 6.4, 4 days, 27° C.)
[13] = system: Trichophyton roseum; test: Antimicrobial spectrum, MIC, potato agar; assay type: cell-based; settings: 96 h, potato agar (pH 6.4, 4 days, 27° C.)
[14] = system: Trichophyton schoenleini; test: Antimicrobial spectrum, MIC, potato agar; assay type: cell-based; settings: 96 h, potato agar (pH 6.4, 4 days, 27° C.)
[15] = system: Acholeplasma laidlawii (A) PG8; test: Antimicrobial spectrum, MIC, PPLO agar; assay type: cell-based
Protocol: (§3) H Hokken PPLO agar (pH 7.8, 8 days, 37° C.)
(§4) E Eiken PPLO agar (pH 7.8, 8 days, 37° C.)
as §2

[16] = system: Acholeplasma laidlawii (B) Bml; test: Antimicrobial spectrum, MIC, PPLO agar; assay type: cell-based; settings: 192 h
Protocol: as §3, §4, §2

[17] = system: Mycoplasma gallisepticum 333P (Spiramycin resistant); test: Antimicrobial spectrum, MIC, PPLO agar; assay type: cell-based; settings: for MIC: Mycoplasmoides gallisepticum, 192 h
Protocol: as §3, §4, §2

[18] = system: Mycoplasma gallisepticum KP-13; test: Antimicrobial spectrum, MIC, PPLO agar; assay type: cell-based; settings: Mycoplasmoides gallisepticum, KP13, 192 h
Protocol: as §3, §4, §2

[19] = system: Mycoplasma gallisepticum S-6; test: Antimicrobial spectrum, MIC, PPLO agar; assay type: cell-based; settings: Mycoplasmoides gallisepticum, S6, 192 h
Protocol: as §3, §4, §2

[20] = system: Tricophyton metagrophytes; test: Treatment of dermatomycosis at the back of guinea pigs; assay type: in vivo; settings: 0.01-1% solution in propylene glycol-ethanol (3:1, v/v), once daily for 8 days
[21] = system: Mycoplasma gallisepticum; test: Therapeutic effect on chronic respiratory disease of chickens; assay type: in vivo
[22] = system: Trichophyton verrucosum; test: Treatment of dermatomycosis of cattle caused by mass infection; assay type: in vivo; set-up: key: +++: complete removal of scales and recovered; ++: a little scales remained; +: removal of a part of scales; -: no removal of scale and no recovery
Protocol: When dermatomycosis of cattle caused by mass infection of Trichophyton verrucosum is treated with nanaomycin B, nanaomycin B is dissolved or suspended in a suitable carrier, for example, olive oil, and is coated on the affected part directly with or without removal of the scales. […] The results obtained by coating nanaomycin B once and by twice coatings (the second coating is carried out a week after the first coating) are shown in tables 2 and 3, respectively.

[23] = Solubility; assay type: physicochemical
[24] = Conversion of nanaomycin B into nanaomycin A in culture medium or living bodies
[25] = pH 7.8, Eiken PPLO agar (pH 7.8, 8 days, 37° C.)
[26] = pH 7.8, Hokken PPLO agar (pH 7.8, 8 days, 37° C.)
[27] = coating once, I direct coating on affected part, 0.1 mg/ml
[28] = coating once, I direct coating on affected part, 1 mg/ml
[29] = coating once, I direct coating on affected part, 10 mg/ml
[30] = coating once, II coating after removing the scales, 0.1 mg/ml
[31] = coating once, II coating after removing the scales, 1 mg/ml
[32] = coating once, II coating after removing the scales, 10 mg/ml
[33] = twice coatings (second a week after the first), I direct coating on affected part, 0.1 mg/ml
[34] = twice coatings (second a week after the first), I direct coating on affected part, 1 mg/ml
[35] = twice coatings (second a week after the first), I direct coating on affected part, 10 mg/ml
[36] = twice coatings (second a week after the first), II coating after removing the scales, 0.1 mg/ml
[37] = twice coatings (second a week after the first), II coating after removing the scales, 1 mg/ml
[38] = twice coatings (second a week after the first), II coating after removing the scales, 10 mg/ml

CC1OC(CC(=O)O)CC2C(=O)c3cccc(O)c3C(=O)C12O (stereo not drawn) [Nanaomycin B]
MIC [1]: 7.8 µg/mL (≈ 24.4 µM) | MIC [2]: 3.9 µg/mL (≈ 12.2 µM) | MIC [3]: 15.6 µg/mL (≈ 48.7 µM) | MIC [4]: 31.3 µg/mL (≈ 97.7 µM) | MIC [5]: 125 µg/mL (≈ 390 µM) | MIC [6]: 62.5 µg/mL (≈ 195 µM) | MIC [7]: 62.5 µg/mL (≈ 195 µM) | MIC [8]: 125 µg/mL (≈ 390 µM) | MIC [9]: 31.2 µg/mL (≈ 97.4 µM) | MIC [10]: 12.5 µg/mL (≈ 39 µM) | MIC [11]: 12.5 µg/mL (≈ 39 µM) | MIC [12]: 25 µg/mL (≈ 78.1 µM) | MIC [13]: 12.5 µg/mL (≈ 39 µM) | MIC [14]: 3.1 µg/mL (≈ 9.68 µM) | MIC ([15]; Acholeplasma laidlawii, 192 h, Hokken PPLO agar (pH 7.8, 8 days, 37° C.), read-out: MIC): > 25 µg/mL | MIC ([15]; Eiken PPLO agar (pH 7.8, 8 days, 37° C.)): > 25 µg/mL | MIC [16, 25]: > 25 µg/mL | MIC [16, 26]: 25 µg/mL (≈ 78.1 µM) | MIC [17, 25]: 0.05 µg/mL (≈ 0.156 µM) | MIC [17, 26]: 0.013 µg/mL (≈ 0.0406 µM) | antimicrobial activity on spiramycin-resistant Mycoplasma gallisepticum ([17]; in words): high antimicrobial activity | MIC [18, 26]: < 0.013 µg/mL | MIC ([18]; Eiken PPLO agar (pH 7.8, 8 days, 37° C.), read-out: MIC): 0.1 µg/mL (≈ 0.312 µM) | MIC [19, 25]: 0.1 µg/mL (≈ 0.312 µM) | MIC [19, 26]: < 0.013 µg/mL | therapeutic effect on erythema and scales [20]: excellent therapeutic effect | therapeutic effect on chronic respiratory disease [21]: therapeutic effect | Result after 1 week [22, 27]: ++ | Result after 2 weeks [22, 27]: ++ | Result after 3 weeks [22, 27]: +++ | Result after 4 weeks [22, 27]: +++ | Result after 1 week [22, 28]: +++ | Result after 2 weeks [22, 28]: +++ | Result after 3 weeks [22, 28]: +++ | Result after 4 weeks [22, 28]: +++ | Result after 1 week [22, 29]: +++ | Result after 2 weeks [22, 29]: +++ | Result after 3 weeks [22, 29]: +++ | Result after 4 weeks [22, 29]: +++ | Result after 1 week [22, 30]: +++ | Result after 2 weeks [22, 30]: +++ | Result after 3 weeks [22, 30]: +++ | Result after 4 weeks [22, 30]: +++ | Result after 1 week [22, 31]: +++ | Result after 2 weeks [22, 31]: +++ | Result after 3 weeks [22, 31]: +++ | Result after 4 weeks [22, 31]: +++ | Result after 1 week [22, 32]: +++ | Result after 2 weeks [22, 32]: +++ | Result after 3 weeks [22, 32]: +++ | Result after 4 weeks [22, 32]: +++ | Result after 1 week [22, 33]: ++ | Result after 2 weeks [22, 33]: +++ | Result after 3 weeks [22, 33]: +++ | Result after 4 weeks [22, 33]: +++ | Result after 1 week [22, 34]: ++ | Result after 2 weeks [22, 34]: ++ | Result after 3 weeks [22, 34]: +++ | Result after 4 weeks [22, 34]: +++ | Result after 1 week [22, 35]: +++ | Result after 2 weeks [22, 35]: +++ | Result after 3 weeks [22, 35]: +++ | Result after 4 weeks [22, 35]: +++ | Result after 1 week [22, 36]: +++ | Result after 2 weeks [22, 36]: +++ | Result after 3 weeks [22, 36]: +++ | Result after 4 weeks [22, 36]: +++ | Result after 1 week [22, 37]: +++ | Result after 2 weeks [22, 37]: +++ | Result after 3 weeks [22, 37]: +++ | Result after 4 weeks [22, 37]: +++ | Result after 1 week [22, 38]: +++ | Result after 2 weeks [22, 38]: +++ | Result after 3 weeks [22, 38]: +++ | Result after 4 weeks [22, 38]: +++ | Solubility in methanol, ethanol, ethylacetate, chloroform, acetone and ether [23]: Easily soluble | Solubility in n-hexane, petroleum ether and water [23]: Insoluble | conversion into nanaomycin A in a culture medium or in living bodies [24]: converted into nanaomycin A
